# Measurements as given in US12440496B2, “Natriuretic peptide receptor a agonists useful for the treatment of cardiometabolic diseases, kidney disease and diabetes” (Merck Sharp & Dohme LLC, priority 2019, dated 2025).
# pEC50: −log10 of the molar value. Where a name gives a salt, the structure may show the parent alone.
# Target: T1, hNPRA (Homo sapiens, UniProt P16066)
# T1 construct: expressed in transfected cells
# T1 sequence (P16066 33-1061): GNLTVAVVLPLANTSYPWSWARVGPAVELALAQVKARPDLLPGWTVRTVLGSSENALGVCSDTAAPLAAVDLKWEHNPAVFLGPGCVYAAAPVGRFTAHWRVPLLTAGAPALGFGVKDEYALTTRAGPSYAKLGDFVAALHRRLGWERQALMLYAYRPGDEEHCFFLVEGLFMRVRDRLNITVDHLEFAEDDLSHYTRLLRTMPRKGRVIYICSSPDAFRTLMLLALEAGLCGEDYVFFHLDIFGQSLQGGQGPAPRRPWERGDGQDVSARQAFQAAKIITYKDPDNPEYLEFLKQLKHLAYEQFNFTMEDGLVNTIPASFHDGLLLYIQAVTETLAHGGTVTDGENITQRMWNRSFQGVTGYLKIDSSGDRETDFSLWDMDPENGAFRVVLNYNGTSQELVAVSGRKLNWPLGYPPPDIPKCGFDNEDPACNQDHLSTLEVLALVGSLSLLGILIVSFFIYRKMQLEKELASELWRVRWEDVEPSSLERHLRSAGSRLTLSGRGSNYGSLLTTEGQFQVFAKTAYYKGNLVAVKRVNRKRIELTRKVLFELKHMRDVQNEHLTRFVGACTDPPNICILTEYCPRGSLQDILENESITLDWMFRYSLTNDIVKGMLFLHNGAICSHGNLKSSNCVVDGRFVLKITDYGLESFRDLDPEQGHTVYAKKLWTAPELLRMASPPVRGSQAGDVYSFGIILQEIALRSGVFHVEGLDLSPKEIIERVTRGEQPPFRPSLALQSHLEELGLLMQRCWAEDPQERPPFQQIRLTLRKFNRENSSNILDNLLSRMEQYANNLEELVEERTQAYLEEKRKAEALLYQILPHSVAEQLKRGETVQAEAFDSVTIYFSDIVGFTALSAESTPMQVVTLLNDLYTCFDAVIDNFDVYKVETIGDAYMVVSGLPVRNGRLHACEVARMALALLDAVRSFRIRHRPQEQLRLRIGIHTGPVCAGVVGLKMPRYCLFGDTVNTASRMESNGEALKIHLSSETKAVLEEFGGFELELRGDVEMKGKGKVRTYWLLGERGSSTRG
# Assay: NPRA Functional Cell Assay (cGMP HTRF, NPRA HEK JumpIn stable cells)
# Format: cell-based
# Conditions: cGMP production, 1 hour at 37° C., 10-point dose response
# Description: NPRA Functional Cell Assay
# Assay Buffer components HEPES and Opti-MEM® I Reduced-Serum with Glutamine (no phenol red) were from Gibco/Invitrogen (Thermo Fisher Scientific, Waltham, MA USA). 3-Isobutyl-1-methylxanthine (IBMX) and 4-(3-Butoxy-4-methoxybenzyl) imidazolidin-2-one (RO20) were obtained from Sigma-Aldrich (St. Louis, MO, USA). DPBS (Dulbecco's phosphate-buffered saline) without Ca2+ and Mg2+ was purchased from GE Healthcare Bio-Sciences (Pittsburgh, PA, USA). 384 well white Optiplates were from Perkin Elmer (Atlantic Highlands, NJ, USA). Human ANP (Atrial Natriuretic Peptide) (1-28) was purchased from Sigma-Aldrich (Catalog #A1663) and rat ANP (1-28) from Bachem (Torrance, CA, USA) (Catalog #H2100). Human-BNP (Human-Brain Natriuretic Peptide) (1-32 AA) was purchased from American Peptide Company (Sunnyvale, CA, USA) (product No. 14-1-90). cGMP kits were purchased from Cisbio. The assay ready frozen (ARF) Human/rat/dog NPRA HEK JumpIn Stable frozen cells (low passage number 5-11) were prepared in-house.
# Test compounds were titrated in DMSO in a 10-point dose response in a separate step followed by a 100-fold dilution into the reaction. Positive response for each assay was determined using 10 nM rat-ANP peptide (rat cells) or 50 nM h-ANP peptide (human and dog cells).
# Cells were thawed, washed with DPBS and resuspended in assay buffer (Opti-MEM+Glutamine, phenol red free media, 10 mM HEPES, 100 uM IBMX and 100 uM RO20) that was warmed to 37° C. Cells were then transferred to microplates via a Microplate Combi dispenser at a density of 1500, 400 and 1200 cells/well for human, rat and dog cells respectively, followed by acoustic transfer (Echo) of compound.
# (§1) Compounds and cells were incubated at 37° C. with 5% CO2 for 1 hour, after which the cells were lysed and cGMP was captured using a CisBio cGMP HTRF assay kit. The TRF signal was measured with an Envision plate reader (emission set to 615 and 665 nm) after 1 hour incubation at ambient temperature. The TRF signal was converted to [cGMP] through the use of a cGMP calibration curve on each microplate. EC50's were generated from the resulting dose response curves by use of a 4 parameter logistic algorithm.
# Assay Buffer components HEPES and Opti-MEM® I Reduced-Serum with Glutamine (no phenol red) were from Gibco/Invitrogen. 3-Isobutyl-1-methylxanthine (IBMX) and 4-(3-Butoxy-4-methoxybenzyl) imidazolidin-2-one (RO20) were obtained from Sigma. DPBS (Dulbecco's phosphate-buffered saline) without Ca2+ and Mg2+ was purchased from GE Healthcare Bio-Sciences (Pittsburgh, PA, USA). 384 well white Optiplates were from Perkin Elmer (Atlantic Highlands, NJ, USA). Human ANP (1-28) was purchased from Sigma (A1663) and rat ANP (1-28) from Bachem (H2100). Human-BNP (1-32 AA) was purchased from American Peptide Company (Sunnyvale, CA, USA) (product No. 14-1-90). cGMP kits were purchased from Cisbio (Bedford, MA, USA). The assay ready frozen (ARF) Human/rat/dog NPRA HEK JumpIn Stable frozen cells (low passage number 5-11) were prepared in-house.
# as §1, with “Envision®” for “Envision”, “reader (Perkin Elmer)” for “reader”
# hNPRA EC50 (nM) were determined for the compounds of Example 1 through Example 273 and are reported in the Experimental section of this application.
row,SMILES,pEC50
1,"CC(C)(C)C1CCc2nc3sc(C(=O)NC(CCN4CC5C(CO)C5C4)c4ccc(-c5ccc(=O)[nH]c5)cc4)cc3cc2C1 (racemic) [Example 27, rac-(6S)-6-tert-butyl-N-[rac-(1R)-3-[6-(hydroxymethyl)-3-azoniabicyclo[3.1.0]hexan-3-yl]-1-[4-(6-oxo-1H-pyridin-3-yl)phenyl]propyl]-5,6,7,8-tetrahydrothieno[2,3-b]quinoline-2-carboxamide;formate]",6.39
2,"CN(C)C1CCN(CCC(NC(=O)c2cc3cc4c(nc3s2)CCC(C(C)(C)C)C4)c2ccc(-c3ccc(=O)[nH]c3)cc2)CC1 (racemic) [Example 28, dimethyl-[1-[rac-(3R)-3-[4-(6-oxo-1H-pyridin-3-yl)phenyl]-3-[[rac-(6S)-6-tert-butyl-5,6,7,8-tetrahydrothieno[2,3-b]quinoline-2-carbonyl]amino]propyl]-4-piperidyl]ammonium;formate]",6.35
3,"CC(C)(C)[C@H]1CCc2nc3sc(C(=O)N[C@H](CCN4CCC(n5cnnc5)CC4)c4ccc(-c5ccc(=O)[nH]c5)cc4)cc3cc2C1 (racemic) [Example 29, rac-(6S)-6-tert-butyl-N-[rac-(1R)-1-[4-(6-oxo-1H-pyridin-3-yl)phenyl]-3-[4-(1,2,4-triazol-4-yl)piperidin-1-ium-1-yl]propyl]-5,6,7,8-tetrahydrothieno[2,3-b]quinoline-2-carboxamide;formate]",6.35
4,"CC(C)(C)[C@H]1CCc2nc3sc(C(=O)N[C@H](CCN4CCCCC4CO)c4ccc(-c5ccc(=O)[nH]c5)cc4)cc3cc2C1 (mixture of isomers) [Example 30, rac-(6S)-6-tert-butyl-N-[rac-(1R)-3-[2-(hydroxymethyl)piperidin-1-ium-1-yl]-1-[4-(6-oxo-1H-pyridin-3-yl)phenyl]propyl]-5,6,7,8-tetrahydrothieno[2,3-b]quinoline-2-carboxamide;formate]",6.34
5,"CC(C)(C)[C@H]1CCc2nc3sc(C(=O)N[C@H](CCN4CCC[C@H](O)[C@H]4CO)c4ccc(-c5ccc(=O)[nH]c5)cc4)cc3cc2C1 (racemic) [Example 31, rac-(6S)-6-tert-butyl-N-[rac-(1R)-1-[4-(6-oxo-1H-pyridin-3-yl)phenyl]-3-[rac-(2R,3S)-3-hydroxy-2-(hydroxymethyl)piperidin-1-ium-1-yl]propyl]-5,6,7,8-tetrahydrothieno[2,3-b]quinoline-2-carboxamide; formate]",6.33
6,"CC(C)(C)[C@H]1CCc2nc3sc(C(=O)N[C@H](CCN4CCCCC4)c4ccc(-c5ccc(O)nc5)cc4)cc3cc2C1 (racemic) [Example 32, rac-(6S)-6-tert-butyl-N-[rac-(1R)-1-[4-(6-oxo-1H-pyridin-3-yl)phenyl]-3-piperidin-1-ium-1-yl-propyl]-5,6,7,8-tetrahydrothieno[2,3-b]quinoline-2-carboxamide;formate]",6.32
7,"CC(C)(C)[C@H]1CCc2nc3sc(C(=O)N[C@H](CCN4CCCC4)c4ccc(-c5ccc(=O)[nH]c5)cc4)cc3cc2C1 (racemic) [Example 33, rac-(6S)-6-tert-butyl-N-[rac-(1R)-1-[4-(6-oxo-1H-pyridin-3-yl)phenyl]-3-pyrrolidin-1-ium-1-yl-propyl]-5,6,7,8-tetrahydrothieno[2,3-b]quinoline-2-carboxamide;formate]",6.29
8,"CC(C)(C)[C@H]1CCc2nc3sc(C(=O)N[C@H](CCN(CCO)CCO)c4ccc(-c5ccc(=O)[nH]c5)cc4)cc3cc2C1 (racemic) [Example 34, rac-(6S)-6-tert-butyl-N-[rac-(1R)-3-[bis(2-hydroxyethyl)amino]-1-[4-(6-oxo-1H-pyridin-3-yl)phenyl]propyl]-5,6,7,8-tetrahydrothieno[2,3-b]quinoline-2-carboxamide]",6.28
9,"CC(C)(C)[C@H]1CCc2nc3sc(C(=O)N[C@H](CCN4CCC(n5ncnn5)CC4)c4ccc(-c5ccc(=O)[nH]c5)cc4)cc3cc2C1 (racemic) [Example 35, rac-(6S)-6-tert-butyl-N-[rac-(1R)-1-[4-(6-oxo-1H-pyridin-3-yl)phenyl]-3-[4-(tetrazol-2-yl)piperidin-1-ium-1-yl]propyl]-5,6,7,8-tetrahydrothieno[2,3-b]quinoline-2-carboxamide;formate]",6.27
10,"CC(C)(C)[C@H]1CCc2nc3sc(C(=O)N[C@H](CCNC4CCOCC4)c4ccc(-c5ccc(=O)[nH]c5)cc4)cc3cc2C1 (racemic) [Example 36, [rac-(3R)-3-[4-(6-oxo-1H-pyridin-3-yl)phenyl]-3-[rac-(6S)-6-tert-butyl-5,6,7,8-tetrahydrothieno[2,3-b]quinoline-2-carbonyl]amino]propyl]-tetrahydropyran-4-yl-ammonium;formate]",6.25
11,"CC(C)(C)[C@H]1CCc2nc3sc(C(=O)N[C@H](CCN[C@@H]4C[C@@H](O)[C@@H](O)C4)c4ccc(-c5ccc(=O)[nH]c5)cc4)cc3cc2C1 (racemic) [Example 37, [rac-(3R,4S)-3,4-dihydroxycyclopentyl]-[rac-(3R)-3-[4-(6-oxo-1H-pyridin-3-yl)phenyl]-3-[[rac-(6S)-6-tert-butyl-5,6,7,8-tetrahydrothieno[2,3-b]quinoline-2-carbonyl]amino]propyl] ammonium;formate]",6.24
12,"CC(C)(C)[C@H]1CCc2nc3sc(C(=O)N[C@H](CCN4CCC[C@H]4CO)c4ccc(-c5ccc(=O)[nH]c5)cc4)cc3cc2C1 (racemic) [Example 38, rac-(6S)-6-tert-butyl-N-[rac-(1R)-1-[4-(6-oxo-1H-pyridin-3-yl)phenyl]-3-[rac-(2S)-2-(hydroxymethyl)pyrrolidin-1-ium-1-yl]propyl]-5,6,7,8-tetrahydrothieno[2,3-b]quinoline-2-carboxamide;formate]",6.24
13,"CC(C)(C)[C@H]1CCc2nc3sc(C(=O)N[C@H](CCN[C@H]4C[C@@H](O)[C@@H](O)C4)c4ccc(-c5ccc(=O)[nH]c5)cc4)cc3cc2C1 (racemic) [Example 39, [rac-(3R,4S)-3,4-dihydroxycyclopentyl]-[rac-(3R)-3-[4-(6-oxo-1H-pyridin-3-yl)phenyl]-3-[[rac-(6S)-6-tert-butyl-5,6,7,8-tetrahydrothieno[2,3-b]quinoline-2-carbonyl]amino]propyl] ammonium;formate]",6.18
